Measurements reported in ChEMBL document CHEMBL1150473, “Schotten-Baumann acylation of N-debenzoyltaxol; an efficient route to N-acyl taxol analogues and their biological evaluation” (1994).

How the values were obtained:
[1] = target: Tubulin alpha chain (Sus scrofa) (UniProt P02550); experiment: Evaluated for ability to initiate the polymerization of tubulin in the microtubule assembly assay expressed as ED50(compound) / ED50(taxol); assay type: functional
B16 = experiment: Cytotoxic ratio of inhibition of B16 melanoma cell proliferation after 40 hour incubation relative to taxol; assay type: functional, Mus musculus

Chain of Tubulin alpha chain (Sus scrofa) (P02550 whole entry, looked up): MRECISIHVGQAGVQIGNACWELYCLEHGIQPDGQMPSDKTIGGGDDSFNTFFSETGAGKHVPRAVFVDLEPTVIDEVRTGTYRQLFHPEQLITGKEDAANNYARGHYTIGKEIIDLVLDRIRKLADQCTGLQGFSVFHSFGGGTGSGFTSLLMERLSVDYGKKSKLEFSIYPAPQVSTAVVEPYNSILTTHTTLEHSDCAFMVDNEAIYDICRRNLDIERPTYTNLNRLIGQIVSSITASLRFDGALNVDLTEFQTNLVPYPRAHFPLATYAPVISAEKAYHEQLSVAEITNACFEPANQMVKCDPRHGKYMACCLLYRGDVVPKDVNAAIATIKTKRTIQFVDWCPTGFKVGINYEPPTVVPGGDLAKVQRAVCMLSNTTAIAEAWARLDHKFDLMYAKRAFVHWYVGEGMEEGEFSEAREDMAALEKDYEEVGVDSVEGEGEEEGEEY

SMILES | ED50 ratio [1] | ED50 ratio (B16)
CC(=O)O[C@@]12CO[C@@H]1C[C@H](O)[C@@]1(C)C(=O)[C@H](O)C3=C(C)[C@@H](OC(=O)[C@H](O)[C@@H](NC(=O)OC(C)(C)C)c4ccccc4)C[C@@](O)([C@@H](OC(=O)c4ccccc4)[C@H]21)C3(C)C.O.O.O [DOCETAXEL] | 0.55 | 0.23
CC(=O)O[C@H]1C(=O)[C@@]2(C)[C@H]([C@H](OC(=O)c3ccccc3)[C@]3(O)C[C@H](OC(=O)[C@H](O)[C@@H](NC(=O)c4c(F)c(F)c(N=[N+]=[N-])c(F)c4F)c4ccccc4)C(C)=C1C3(C)C)[C@]1(OC(C)=O)CO[C@@H]1C[C@@H]2O | 4.6 | 14.8
CC(=O)O[C@H]1C(=O)[C@@]2(C)[C@H]([C@H](OC(=O)c3ccccc3)[C@]3(O)C[C@H](OC(=O)[C@H](O)[C@@H](NC(=O)CC(C)(C)C)c4ccccc4)C(C)=C1C3(C)C)[C@]1(OC(C)=O)CO[C@@H]1C[C@@H]2O | 0.74 | 3.13

The next lines start with results.

ED50 ratio [1] | SMILES | ED50 ratio (B16)
1 | CC(=O)O[C@H]1C(=O)[C@@]2(C)[C@H]([C@H](OC(=O)c3ccccc3)[C@]3(O)C[C@H](OC(=O)[C@H](O)[C@@H](NC(=O)c4ccccc4)c4ccccc4)C(C)=C1C3(C)C)[C@]1(OC(C)=O)CO[C@@H]1C[C@@H]2O [PACLITAXEL] | 1
1.18 | CC(=O)O[C@H]1C(=O)[C@@]2(C)[C@H]([C@H](OC(=O)c3ccccc3)[C@]3(O)C[C@H](OC(=O)[C@H](O)[C@@H](NC(=O)CC(C)C)c4ccccc4)C(C)=C1C3(C)C)[C@]1(OC(C)=O)CO[C@@H]1C[C@@H]2O | 2.65
2.61 | CC(=O)O[C@H]1C(=O)[C@@]2(C)[C@H]([C@H](OC(=O)c3ccccc3)[C@]3(O)C[C@H](OC(=O)[C@H](O)[C@@H](NC(=O)C(C)(C)C)c4ccccc4)C(C)=C1C3(C)C)[C@]1(OC(C)=O)CO[C@@H]1C[C@@H]2O | 22.4
